According to US20260262643A1, “HERBICIDAL BENZOXAZINES” (FMC CORPORATION, priority 2022, published 2026):

How the values were obtained:
[1] = tested on: soybean; experiment: Test A postemergence; assay type: in vivo, Glycine max; details: postemergence, 10 days; for Soybean plant response rating: 125 g ai/ha, 0 to 100 scale, 0 no effect, 100 complete control; for Plant response rating, Soybean: 500 g ai/ha, visual injury, 0 to 100 scale (0 no effect, 100 complete control)
Method in brief: (§1)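 Greenhouse pot test, 10 days. Compound (non-phytotoxic solvent, surfactant) sprayed on soil at seeding or on seedlings at one- to two-leaf stage. Visual injury rated 0–100 against untreated plants.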

[2] = tested on: corn; experiment: Test A postemergence; assay type: in vivo, Zea mays; details: postemergence, 10 days; for Corn plant response rating: 125 g ai/ha, 0 to 100 scale, 0 no effect, 100 complete control; for Plant response rating, Corn: 500 g ai/ha, visual injury, 0 to 100 scale (0 no effect, 100 complete control)
Method in brief: as §1

[3] = tested on: soybean; experiment: Test A preemergence; assay type: in vivo, Glycine max; details: 0 to 100 scale
Method in brief: as §1

[4] = tested on: wheat; experiment: Test A postemergence; assay type: in vivo, Triticum aestivum; details: postemergence, 10 days; for Wheat plant response rating: 125 g ai/ha, 0 to 100 scale, 0 no effect, 100 complete control; for Plant response rating, Wheat: 500 g ai/ha, visual injury, 0 to 100 scale (0 no effect, 100 complete control)
Method in brief: as §1

[5] = tested on: foxtail, giant; experiment: Test A postemergence; assay type: in vivo, Setaria faberi; details: postemergence, 10 days; for Foxtail, Giant plant response rating: 125 g ai/ha, 0 to 100 scale, 0 no effect, 100 complete control; for Plant response rating, Foxtail, Giant: 500 g ai/ha, visual injury, 0 to 100 scale (0 no effect, 100 complete control)
Method in brief: as §1

[6] = tested on: pigweed, palmer; experiment: Test A preemergence; assay type: in vivo, Amaranthus palmeri; details: 0 to 100 scale
Method in brief: as §1

[7] = tested on: blackgrass; experiment: Test A postemergence; assay type: in vivo, Alopecurus myosuroides; details: postemergence, 10 days; for Blackgrass plant response rating: 125 g ai/ha, 0 to 100 scale, 0 no effect, 100 complete control; for Plant response rating, Blackgrass: 500 g ai/ha, visual injury, 0 to 100 scale (0 no effect, 100 complete control)
Method in brief: as §1

[8] = tested on: kochia; experiment: Test A postemergence; assay type: in vivo, Bassia scoparia; details: postemergence, 10 days; for Kochia plant response rating: 125 g ai/ha, 0 to 100 scale, 0 no effect, 100 complete control; for Plant response rating, Kochia: 500 g ai/ha, visual injury, 0 to 100 scale (0 no effect, 100 complete control)
Method in brief: as §1

[9] = tested on: barnyardgrass; experiment: Test A postemergence; assay type: in vivo, Echinochloa crusgalli; details: postemergence, 10 days; for Barnyardgrass plant response rating: 125 g ai/ha, 0 to 100 scale, 0 no effect, 100 complete control; for Plant response rating, Barnyardgrass: 500 g ai/ha, visual injury, 0 to 100 scale (0 no effect, 100 complete control)
Method in brief: as §1

[10] = tested on: ragweed; experiment: Test A preemergence; assay type: in vivo, Ambrosia artemisiifolia; details: 0 to 100 scale
Method in brief: as §1

[11] = tested on: oat, wild; experiment: Test A preemergence; assay type: in vivo, Avena fatua; details: 0 to 100 scale
Method in brief: as §1

[12] = tested on: galium; experiment: Test A postemergence; assay type: in vivo, Galium aparine; details: postemergence, 10 days; for Plant response rating, Galium: 500 g ai/ha, visual injury, 0 to 100 scale (0 no effect, 100 complete control)
Method in brief: as §1

[13] = tested on: ragweed; experiment: Test A postemergence; assay type: in vivo, Ambrosia artemisiifolia; details: postemergence, 10 days; for Ragweed plant response rating: 125 g ai/ha, 0 to 100 scale, 0 no effect, 100 complete control; for Plant response rating, Ragweed: 500 g ai/ha, visual injury, 0 to 100 scale (0 no effect, 100 complete control)
Method in brief: as §1

[14] = tested on: corn; experiment: Test A preemergence; assay type: in vivo, Zea mays; details: 0 to 100 scale
Method in brief: as §1

[15] = tested on: ducksalad; experiment: Test B flooded paddy test; assay type: in vivo, Heteranthera limosa; details: 250 g ai/ha, Flood, 13 days, 0 to 100 scale (0 no effect, 100 complete control)
Method in brief: (§2)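 Visual scores from 0 (no effect) to 100 (complete kill) were assigned 13 days after treatment by comparison with controls. Seedlings had been treated at two leaves by adding compound to floodwater standing 3 cm deep, kept at that level in the greenhouse.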

[16] = tested on: ryegrass, Italian; experiment: Test A postemergence; assay type: in vivo, Lolium multiflorum; details: postemergence, 10 days; for Ryegrass, Italian plant response rating: 125 g ai/ha, 0 to 100 scale, 0 no effect, 100 complete control; for Plant response rating, Ryegrass, Italian: 500 g ai/ha, visual injury, 0 to 100 scale (0 no effect, 100 complete control)
Method in brief: as §1

[17] = tested on: foxtail, giant; experiment: Test A preemergence; assay type: in vivo, Setaria faberi; details: 0 to 100 scale
Method in brief: as §1

[18] = tested on: rice; experiment: Test B flooded paddy test; assay type: in vivo, Oryza sativa; details: 250 g ai/ha, Flood, 13 days, 0 to 100 scale (0 no effect, 100 complete control)
Method in brief: as §2

[19] = tested on: barnyardgrass; experiment: Test A preemergence; assay type: in vivo, Echinochloa crusgalli; details: visual injury after 10 days, 0 to 100 scale, 0 is no effect, 100 is complete control
Method in brief: as §1

[20] = tested on: barnyardgrass; experiment: Test B flooded paddy test; assay type: in vivo, Echinochloa crus-galli; details: 250 g ai/ha, Flood, 13 days, 0 to 100 scale (0 no effect, 100 complete control)
Method in brief: as §2

[21] = tested on: kochia; experiment: Test A preemergence; assay type: in vivo, Bassia scoparia; details: 0 to 100 scale
Method in brief: as §1

[22] = tested on: wheat; experiment: Test A preemergence; assay type: in vivo, Triticum aestivum; details: 0 to 100 scale
Method in brief: as §1

[23] = tested on: horseweed; experiment: Test A postemergence; assay type: in vivo, Erigeron canadensis; details: postemergence, 10 days; for Horseweed plant response rating: 125 g ai/ha, 0 to 100 scale, 0 no effect, 100 complete control; for Plant response rating, Horseweed: 500 g ai/ha, visual injury, 0 to 100 scale (0 no effect, 100 complete control)
Method in brief: as §1

[24] = tested on: pigweed, palmer; experiment: Test A postemergence; assay type: in vivo, Amaranthus palmeri; details: postemergence, 10 days; for Plant response rating, Pigweed, Palmer: 500 g ai/ha, visual injury, 0 to 100 scale (0 no effect, 100 complete control)
Method in brief: as §1

[25] = tested on: ryegrass, Italian; experiment: Test A preemergence; assay type: in vivo, Lolium multiflorum; details: 0 to 100 scale
Method in brief: as §1

[26] = tested on: blackgrass; experiment: Test A preemergence; assay type: in vivo, Alopecurus myosuroides; details: 0 to 100 scale
Method in brief: as §1

[27] = tested on: sedge, umbrella; experiment: Test B flooded paddy test; assay type: in vivo, Cyperus difformis; details: 250 g ai/ha, Flood, 13 days, 0 to 100 scale (0 no effect, 100 complete control)
Method in brief: as §2

[28] = tested on: oat, wild; experiment: Test A postemergence; assay type: in vivo, Avena fatua; details: postemergence, 10 days; for Oat, Wild plant response rating: 125 g ai/ha, 0 to 100 scale, 0 no effect, 100 complete control; for Plant response rating, Oat, Wild: 500 g ai/ha, visual injury, 0 to 100 scale (0 no effect, 100 complete control)
Method in brief: as §1

[29] = 500 g ai/ha, visual injury after 10 days, 0 is no effect, 100 is complete control
[30] = 125 g ai/ha, visual injury after 10 days, 0 is no effect, 100 is complete control
[31] = 125 g ai/ha, 0 to 100 scale, 0 no effect, 100 complete control

Cc1nc(C)n(-c2cccc(C(=O)N3C[C@H](C)Oc4c(Cl)cccc43)c2)n1 [Compound 142]
Soybean plant response rating [1]: 40 | Plant response rating, Soybean [1]: 40 | Corn plant response rating [2]: 10 | Plant response rating, Corn [2]: 10 | Plant response rating, Soybean ([3]; 125 g ai/ha): 0 | Plant response rating, Soybean [3, 29]: 0 | Wheat plant response rating [4]: 10 | Plant response rating, Wheat [4]: 10 | Foxtail, Giant plant response rating [5]: 30 | Plant response rating, Foxtail, Giant [5]: 80 | Plant response rating, Pigweed, Palmer ([6]; 125 g ai/ha): 0 | Plant response rating, Pigweed, Palmer [6, 29]: 20 | Blackgrass plant response rating [7]: 0 | Plant response rating, Blackgrass [7]: 60 | Kochia plant response rating [8]: 10 | Plant response rating, Kochia [8]: 50 | Barnyardgrass plant response rating [9]: 10 | Plant response rating, Barnyardgrass [9]: 10 | Plant response rating, Ragweed ([10]; 125 g ai/ha): 0 | Plant response rating, Ragweed [10, 29]: 0 | Plant response rating, Oat, Wild ([11]; 125 g ai/ha): 0 | Plant response rating, Oat, Wild [11, 29]: 0 | Plant response rating, Galium [12]: 30 | Ragweed plant response rating [13]: 0 | Plant response rating, Ragweed [13]: 20 | Plant response rating, Corn ([14]; 125 g ai/ha): 0 | Plant response rating, Corn [14, 29]: 10 | Plant response rating, Ducksalad [15]: 0 | Ryegrass, Italian plant response rating [16]: 0 | Plant response rating, Ryegrass, Italian [16]: 20 | Plant response rating, Foxtail, Giant ([17]; 125 g ai/ha): 30 | Plant response rating, Foxtail, Giant [17, 29]: 90 | Plant response rating, Rice [18]: 0 | Plant response rating, Barnyardgrass ([19]; 125 g ai/ha): 30 | Plant response rating, Barnyardgrass ([19]; 500 g ai/ha): 50 | Plant response rating, Barnyardgrass [20]: 0 | Plant response rating, Kochia ([21]; 125 g ai/ha): 0 | Plant response rating, Kochia [21, 29]: 40 | Plant response rating, Wheat ([22]; 125 g ai/ha): 0 | Plant response rating, Wheat [22, 29]: 0 | Horseweed plant response rating [23]: 0 | Plant response rating, Horseweed [23]: 0 | Plant response rating, Pigweed, Palmer [24]: 20 | Plant response rating, Ryegrass, Italian ([25]; 125 g ai/ha): 30 | Plant response rating, Ryegrass, Italian [25, 29]: 50 | Plant response rating, Blackgrass ([26]; 125 g ai/ha): 0 | Plant response rating, Blackgrass [26, 29]: 30 | Plant response rating, Sedge, Umbrella [27]: 0 | Oat, Wild plant response rating [28]: 0 | Plant response rating, Oat, Wild [28]: 0

COCCc1ncn(-c2cccc(C(=O)N3C[C@H](C)Oc4c(C)cccc43)c2)n1 [Compound 113]
Soybean plant response rating [1]: 100 | Plant response rating, Soybean [1]: 100 | Corn plant response rating [2]: 90 | Plant response rating, Corn [2]: 90 | Plant response rating, Soybean [3, 30]: 30 | Plant response rating, Soybean [3, 29]: 80 | Wheat plant response rating [4]: 50 | Plant response rating, Wheat [4]: 80 | Foxtail, Giant plant response rating [5]: 60 | Plant response rating, Foxtail, Giant [5]: 90 | Plant response rating, Pigweed, Palmer [6, 30]: 90 | Plant response rating, Pigweed, Palmer [6, 29]: 100 | Blackgrass plant response rating [7]: 80 | Plant response rating, Blackgrass [7]: 90 | Kochia plant response rating [8]: 40 | Plant response rating, Kochia [8]: 90 | Barnyardgrass plant response rating [9]: 60 | Plant response rating, Barnyardgrass [9]: 90 | Plant response rating, Ragweed [10, 30]: 0 | Plant response rating, Ragweed [10, 29]: 70 | Plant response rating, Oat, Wild [11, 30]: 80 | Plant response rating, Oat, Wild [11, 29]: 90 | Galium plant response rating [12, 31]: 90 | Plant response rating, Galium [12]: 100 | Ragweed plant response rating [13]: 50 | Plant response rating, Ragweed [13]: 50 | Plant response rating, Corn [14, 30]: 20 | Plant response rating, Corn [14, 29]: 90 | Plant response rating, Ducksalad [15]: 65 | Ryegrass, Italian plant response rating [16]: 50 | Plant response rating, Ryegrass, Italian [16]: 100 | Plant response rating, Foxtail, Giant [17, 30]: 100 | Plant response rating, Foxtail, Giant [17, 29]: 100 | Plant response rating, Rice [18]: 0 | Plant response rating, Barnyardgrass ([19]; 125 g ai/ha): 90 | Plant response rating, Barnyardgrass ([19]; 500 g ai/ha): 100 | Plant response rating, Barnyardgrass [20]: 45 | Plant response rating, Kochia [21, 30]: 60 | Plant response rating, Kochia [21, 29]: 100 | Plant response rating, Wheat [22, 30]: 80 | Plant response rating, Wheat [22, 29]: 90 | Horseweed plant response rating [23]: 10 | Plant response rating, Horseweed [23]: 30 | Pigweed, Palmer plant response rating [24, 31]: 30 | Plant response rating, Pigweed, Palmer [24]: 80 | Plant response rating, Ryegrass, Italian [25, 30]: 90 | Plant response rating, Ryegrass, Italian [25, 29]: 100 | Plant response rating, Blackgrass [26, 30]: 70 | Plant response rating, Blackgrass [26, 29]: 90 | Plant response rating, Sedge, Umbrella [27]: 80 | Oat, Wild plant response rating [28]: 70 | Plant response rating, Oat, Wild [28]: 80
